Patent publication US20230017786A1, “DEXTR[…] A DISEASE-MODIFYING TREATMENT FOR NEUROPSYCHIATRIC DISORDERS AND DISEASES” (priority 2020, published 2023)

Columns and labels:
Assay type in all cases: cell-based
[1] = target: T1, human NMDA receptor GluN1-GluN2D (Homo sapiens, UniProt O15399+Q05586); assay: FLIPR calcium assay, quinolinic acid, gentamicin, dextromethadone (Example 5 Part II), GluN1-GluN2D-CHO
T1 construct: expressed in transfected cells; host or cells: CHO
Experimental: (§1) Quinolinic acid or gentamicin CRCs were also produced, in presence of 10 μM glycine.
(§2) Test items were evaluated in FLIPR for their ability to modulate, alone or in combination, calcium entry in presence of […], using four CHO cell lines expressing diheteromeric human NMDA receptor (NMDAR): GluN-/GluN2A-CHO, GluN1-GluN2B-CHO, GluN1-GluN2C-CHO, GluN1-GluN2D-CHO.
(§3) The first aim of the study was to evaluate quinolinic acid or gentamicin CRC effect in the presence of 10 μM glycine.
(§4) FLIPR determination of intracellular calcium level was used as a read-out for NMDAR activation.
(§5) 400× compound plate was stored at −20° C. till FLIPR experimental day.
(§6) A 4× compound plate was generated from 400× compound plate by addition of up to 30 μl/well of compound buffer on FLIPR experimental day.
(§7) A FLIPR system was used to monitor intracellular calcium level in NMDAR cell lines, pre-loaded for 1 hour with Fluo-4, and then washed with assay buffer.
(§8) Y=Bottom+(Top−Bottom)/(1+10^((LogEC50−X)*HillSlope))
(§9) Test item CRC data were plotted by Prism 8 GraphPad software, in the different experimental conditions. And, column analysis, performed by Prism 8 GraphPad software, was one way ANOVA followed by Tukey's multiple comparisons test, with a single pooled variance.

[2] = target: T2, human NMDA receptor GluN1-GluN2C (Homo sapiens, UniProt Q05586+Q14957); assay: FLIPR calcium assay, quinolinic acid, gentamicin, dextromethadone (Example 5 Part II), GluN1-GluN2C-CHO
T2 construct: expressed in transfected cells; host or cells: CHO
Experimental: as §1, §2, §3, §4, §5, §6, §7, §8, §9

[3] = target: T3, recombinant human NMDAR GluN1 plus GluN2D (Homo sapiens, UniProt O15399+Q05586); assay: FLIPR calcium assay, gentamicin as PAM (Example 5 Part I), GluN2D cell line; conditions: 10 μM test item; dextromethadone in presence and absence of 10 μM gentamicin
T3 construct: expressed in transfected cells; host or cells: CHO
From the text: (§10) A FLIPR calcium assay was used to profile gentamicin using stable cell lines expressing diheteromeric recombinant human NMDARs, containing GluN1 plus one amongst GluN2A, GluN2B, GluN2C or GluN2D subunit.

[4] = target: T4, recombinant human NMDAR GluN1 plus GluN2C (Homo sapiens, UniProt Q05586+Q14957); assay: FLIPR calcium assay, gentamicin as PAM (Example 5 Part I), GluN2C cell line; conditions: 10 μM test item; dextromethadone in presence and absence of 10 μM gentamicin
T4 construct: expressed in transfected cells; host or cells: CHO
From the text: as §10

[5] = target: T5, human NMDA receptor GluN1-GluN2B (Homo sapiens, UniProt Q05586+Q13224); assay: FLIPR calcium assay, quinolinic acid, gentamicin, dextromethadone (Example 5 Part II), GluN1-GluN2B-CHO
T5 construct: expressed in transfected cells; host or cells: CHO
Experimental: as §1, §2, §3, §4, §5, §6, §7, §8, §9

[6] = target: T6, recombinant human NMDAR GluN1 plus GluN2A (Homo sapiens, UniProt Q05586+Q12879); assay: FLIPR calcium assay, gentamicin as PAM (Example 5 Part I), GluN2A cell line; conditions: 10 μM test item; dextromethadone in presence and absence of 10 μM gentamicin
T6 construct: expressed in transfected cells; host or cells: CHO
From the text: as §10

[7] = target: T7, recombinant human NMDAR GluN1 plus GluN2B (Homo sapiens, UniProt Q05586+Q13224); assay: FLIPR calcium assay, gentamicin as PAM (Example 5 Part I), GluN2B cell line; conditions: 10 μM test item; dextromethadone in presence and absence of 10 μM gentamicin
T7 construct: expressed in transfected cells; host or cells: CHO
From the text: as §10

[8] = target: T8, human NMDA receptor GluN1-GluN2A (Homo sapiens, UniProt Q05586+Q12879); assay: FLIPR calcium assay, quinolinic acid, gentamicin, dextromethadone (Example 5 Part II), GluN1-GluN2A-CHO; design: calcium response (mean±SEM): unit not given here
T8 construct: expressed in transfected cells; host or cells: CHO
Experimental: as §1, §2, §3, §4, §5, §6, §7, §8, §9

[9] = CRC in presence of 10 μM glycine
[10] = CRC in presence of 10 μM glycine, no glutamate
[11] = gentamicin CRC, max 100, 10 μM glycine

T1 sequence (O15399 28-1336, other chains not shown): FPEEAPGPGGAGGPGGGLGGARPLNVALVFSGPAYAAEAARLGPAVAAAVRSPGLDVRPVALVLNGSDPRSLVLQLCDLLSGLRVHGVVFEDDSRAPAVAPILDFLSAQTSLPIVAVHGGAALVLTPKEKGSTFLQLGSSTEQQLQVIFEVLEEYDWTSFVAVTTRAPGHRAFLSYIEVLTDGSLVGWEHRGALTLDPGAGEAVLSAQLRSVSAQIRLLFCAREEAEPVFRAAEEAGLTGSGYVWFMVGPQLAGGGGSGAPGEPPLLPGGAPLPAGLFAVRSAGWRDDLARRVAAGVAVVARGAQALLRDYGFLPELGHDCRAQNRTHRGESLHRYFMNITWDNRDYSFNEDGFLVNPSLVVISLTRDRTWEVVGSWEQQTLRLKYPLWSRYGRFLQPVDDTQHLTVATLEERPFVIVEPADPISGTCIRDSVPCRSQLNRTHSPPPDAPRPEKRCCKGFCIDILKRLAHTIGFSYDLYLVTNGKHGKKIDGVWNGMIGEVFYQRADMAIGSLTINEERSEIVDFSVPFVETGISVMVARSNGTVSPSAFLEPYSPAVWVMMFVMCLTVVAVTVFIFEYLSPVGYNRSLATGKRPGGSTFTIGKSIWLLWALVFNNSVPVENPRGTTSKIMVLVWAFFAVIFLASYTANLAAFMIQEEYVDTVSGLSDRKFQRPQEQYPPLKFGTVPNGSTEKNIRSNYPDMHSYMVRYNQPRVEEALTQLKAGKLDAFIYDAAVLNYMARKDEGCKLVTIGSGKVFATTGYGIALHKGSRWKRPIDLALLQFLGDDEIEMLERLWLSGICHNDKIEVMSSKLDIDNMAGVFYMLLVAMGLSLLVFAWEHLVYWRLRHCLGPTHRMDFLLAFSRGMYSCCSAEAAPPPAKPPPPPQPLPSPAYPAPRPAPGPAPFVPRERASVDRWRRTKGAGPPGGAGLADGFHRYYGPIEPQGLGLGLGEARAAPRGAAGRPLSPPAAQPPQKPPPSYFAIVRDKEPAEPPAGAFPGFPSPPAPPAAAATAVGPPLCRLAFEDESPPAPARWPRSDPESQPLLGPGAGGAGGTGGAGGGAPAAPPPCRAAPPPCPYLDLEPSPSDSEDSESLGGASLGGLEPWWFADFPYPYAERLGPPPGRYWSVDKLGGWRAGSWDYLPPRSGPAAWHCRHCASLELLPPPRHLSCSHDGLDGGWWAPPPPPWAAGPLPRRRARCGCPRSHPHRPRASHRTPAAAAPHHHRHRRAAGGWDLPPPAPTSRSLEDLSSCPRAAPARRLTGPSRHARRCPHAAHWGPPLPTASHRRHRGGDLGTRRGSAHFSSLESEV
T3 sequence (O15399 28-1336, other chains not shown): as above
T6 sequence (Q12879 23-1464, other chains not shown): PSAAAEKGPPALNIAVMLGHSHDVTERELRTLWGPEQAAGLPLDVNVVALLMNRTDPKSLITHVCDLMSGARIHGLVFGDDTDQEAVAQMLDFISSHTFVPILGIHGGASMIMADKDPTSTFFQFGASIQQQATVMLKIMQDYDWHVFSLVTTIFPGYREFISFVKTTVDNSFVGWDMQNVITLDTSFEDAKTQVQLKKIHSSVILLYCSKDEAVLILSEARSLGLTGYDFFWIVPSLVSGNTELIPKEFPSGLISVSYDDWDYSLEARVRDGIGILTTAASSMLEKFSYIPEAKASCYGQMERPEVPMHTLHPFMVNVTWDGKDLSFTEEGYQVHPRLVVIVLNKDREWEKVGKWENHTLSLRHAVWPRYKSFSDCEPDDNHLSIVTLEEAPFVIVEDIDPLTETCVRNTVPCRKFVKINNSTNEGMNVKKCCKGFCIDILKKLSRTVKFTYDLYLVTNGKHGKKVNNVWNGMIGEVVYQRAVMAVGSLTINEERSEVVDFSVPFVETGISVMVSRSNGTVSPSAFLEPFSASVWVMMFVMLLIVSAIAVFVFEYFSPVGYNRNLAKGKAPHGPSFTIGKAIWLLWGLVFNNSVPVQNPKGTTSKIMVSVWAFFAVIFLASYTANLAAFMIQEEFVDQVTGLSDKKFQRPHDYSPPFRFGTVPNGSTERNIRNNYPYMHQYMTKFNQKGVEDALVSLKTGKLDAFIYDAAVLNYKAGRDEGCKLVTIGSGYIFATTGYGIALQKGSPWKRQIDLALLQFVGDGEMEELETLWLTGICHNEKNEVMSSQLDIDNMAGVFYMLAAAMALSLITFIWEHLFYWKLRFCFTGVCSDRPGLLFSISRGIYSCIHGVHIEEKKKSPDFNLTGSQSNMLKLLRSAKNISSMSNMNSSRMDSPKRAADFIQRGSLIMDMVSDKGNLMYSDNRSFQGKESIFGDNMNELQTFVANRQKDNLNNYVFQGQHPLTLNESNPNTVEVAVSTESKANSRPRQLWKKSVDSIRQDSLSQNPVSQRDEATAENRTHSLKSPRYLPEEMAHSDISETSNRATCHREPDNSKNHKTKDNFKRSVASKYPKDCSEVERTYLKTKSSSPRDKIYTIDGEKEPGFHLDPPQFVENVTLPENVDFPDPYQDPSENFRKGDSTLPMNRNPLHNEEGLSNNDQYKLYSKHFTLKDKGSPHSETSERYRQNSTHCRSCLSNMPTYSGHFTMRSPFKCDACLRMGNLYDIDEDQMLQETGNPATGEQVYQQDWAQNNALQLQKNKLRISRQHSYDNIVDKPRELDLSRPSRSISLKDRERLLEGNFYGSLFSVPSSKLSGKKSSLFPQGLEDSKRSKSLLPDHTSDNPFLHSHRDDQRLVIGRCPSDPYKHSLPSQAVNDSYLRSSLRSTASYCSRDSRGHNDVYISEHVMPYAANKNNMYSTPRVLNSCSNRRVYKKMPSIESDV
T8 sequence (Q12879 23-1464, other chains not shown): as above

Substance: Gentamicin sulfate
- EC50 ([1]; 10 μM glycine): >100 µg/mL
- calcium response (mean±SEM) ([1]; 1000 μM QA + 10 μg/ml GENT, 10 μM glycine, GluN2D, n=42): 53 ± 1.7
- Minimal response (%) [1, 9]: −3.2%
- pEC50 [1, 10]: <4
- Response at max conc (%) [1, 11]: 1.0%
- EC50 ([2]; 10 μM glycine): >100 µg/mL
- calcium response (mean±SEM) ([2]; 1000 μM QA + 10 μg/ml GENT, 10 μM glycine, GluN2C, n=42): 5.6 ± 0.4
- Minimal response (%) [2, 9]: −8.2%
- pEC50 [2, 10]: <4
- Response at max conc (%) [2, 11]: 0.03%
- calcium entry induced by 0.04 μM L-glutamate [3]: significantly increased
- calcium entry induced by 0.2 μM L-glutamate [3]: decreased calcium entry
- calcium entry induced by 10 μM L-glutamate [3]: did not modify
- calcium entry induced by 0.04 μM L-glutamate [4]: significantly increased
- calcium entry induced by 10 μM L-glutamate [4]: significantly decreased
- EC50 ([5]; 10 μM glycine): >100 µg/mL
- calcium response (mean±SEM) ([5]; 1000 μM QA + 10 μg/ml GENT, 10 μM glycine, GluN2B, n=42): 37 ± 1.4
- Minimal response (%) [5, 9]: −3.7%
- pEC50 [5, 10]: <4
- Response at max conc (%) [5, 11]: 0.7%
- calcium entry induced by 0.04 μM L-glutamate [6]: significantly increased
- calcium entry induced by 0.2 μM L-glutamate [6]: significantly increased
- calcium entry induced by 10 μM L-glutamate [6]: significantly decreased
- calcium entry induced by 0.04 μM L-glutamate [7]: significantly increased
- calcium entry induced by 0.2 μM L-glutamate [7]: significantly increased
- calcium entry induced by 10 μM L-glutamate [7]: did not modify
- EC50 ([8]; 10 μM glycine): >100 µg/mL
- % effect on calcium entry, 1000 μM quinolinic acid plus gentamicin ([8]; 10 μg/ml gentamicin, 10 μM glycine): 47±1.1%
- calcium response (mean±SEM) ([8]; 1000 μM QA + 10 μg/ml GENT, 10 μM glycine, GluN2A, n=42): 47 ± 1.1
- Minimal response (%) [8, 9]: −3.3%
- pEC50 [8, 10]: <4
- Response at max conc (%) [8, 11]: 0.1%
